From ChEMBL document CHEMBL3864192, “Discovery and Optimization of Two Eis Inhibitor Families as Kanamycin Adjuvants against Drug-Resistant M. tuberculosis” (ACS Med Chem Lett, 2016)
The source made the active and inactive calls. The rule behind the calls is not given here.

Key:
[1] = target: T1, N-acetyltransferase Eis (Mycobacterium tuberculosis (strain ATCC 25618 / H37Rv), UniProt P9WFK7); experiment: Inhibition of Mycobacterium tuberculosis H37Rv Eis expressed in Escherichia coli BL21(DE3) using Acetyl-CoA as substrate preincubated for 10 mins followed by substrate addition measured every 30 sec for 10 mins
T1 sequence (P9WFK7 whole entry): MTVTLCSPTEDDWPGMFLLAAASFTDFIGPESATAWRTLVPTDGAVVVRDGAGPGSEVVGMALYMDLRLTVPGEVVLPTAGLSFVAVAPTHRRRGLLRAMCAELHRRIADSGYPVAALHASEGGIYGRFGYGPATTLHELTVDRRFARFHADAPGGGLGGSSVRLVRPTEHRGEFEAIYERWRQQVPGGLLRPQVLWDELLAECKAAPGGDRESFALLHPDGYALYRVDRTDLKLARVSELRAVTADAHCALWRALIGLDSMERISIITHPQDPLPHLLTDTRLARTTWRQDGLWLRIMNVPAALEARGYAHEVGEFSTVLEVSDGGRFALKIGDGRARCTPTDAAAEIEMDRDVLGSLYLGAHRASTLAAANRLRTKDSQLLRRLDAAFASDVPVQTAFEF

[2] = test system: Mycobacterium tuberculosis; experiment: Potentiation of kanamycin induced-antimicrobial activity against Mycobacterium tuberculosis H37Rv at 100 uM preincubated for 24 hrs followed by kanamycin addition measured after 6 days by Alamar blue assay; type: functional
[3] = test system: Mycobacterium tuberculosis; experiment: Inhibition of Mycobacterium tuberculosis K204 Eis assessed as kanamycin MIC at 100 uM preincubated for 24 hrs followed by kanamycin addition measured after 6 days by Alamar blue assay (Rvb >= 10 ug/ml)
[4] = target: T2, N-acetyltransferase Eis (Mycobacterium tuberculosis (strain ATCC 25618 / H37Rv)) (UniProt P9WFK7); experiment: Inhibition of Mycobacterium tuberculosis H37Rv Eis expressed in Escherichia coli BL21(DE3) at 20 uM using Acetyl-CoA as substrate after 5 mins by HTS assay
T2 sequence (whole entry): T1 sequence (P9WFK7 whole entry)

[5] = test system: Mycobacterium tuberculosis; experiment: Potentiation of kanamycin induced-antimicrobial activity against Mycobacterium tuberculosis H37Rv at 52.6 uM preincubated for 24 hrs followed by kanamycin addition measured after 6 days by Alamar blue assay; type: functional
[6] = test system: Mycobacterium tuberculosis; experiment: Inhibition of Mycobacterium tuberculosis K204 Eis assessed as kanamycin MIC at 52.6 uM preincubated for 24 hrs followed by kanamycin addition measured after 6 days by Alamar blue assay (Rvb >= 10 ug/ml)
[7] = test system: Mycobacterium tuberculosis; experiment: Potentiation of kanamycin induced-antimicrobial activity against Mycobacterium tuberculosis H37Rv at 8.9 uM preincubated for 24 hrs followed by kanamycin addition measured after 6 days by Alamar blue assay; type: functional
[8] = test system: Mycobacterium tuberculosis; experiment: Inhibition of Mycobacterium tuberculosis K204 Eis assessed as kanamycin MIC at 8.9 uM preincubated for 24 hrs followed by kanamycin addition measured after 6 days by Alamar blue assay (Rvb >= 10 ug/ml)
[9] = test system: Mycobacterium tuberculosis; experiment: Inhibition of Mycobacterium tuberculosis K204 Eis assessed as kanamycin MIC at 33.9 uM preincubated for 24 hrs followed by kanamycin addition measured after 6 days by Alamar blue assay (Rvb >= 10 ug/ml)
[10] = test system: Mycobacterium tuberculosis; experiment: Potentiation of kanamycin induced-antimicrobial activity against Mycobacterium tuberculosis H37Rv at 33.9 uM preincubated for 24 hrs followed by kanamycin addition measured after 6 days by Alamar blue assay; type: functional
[11] = test system: Mycobacterium tuberculosis; experiment: Potentiation of kanamycin induced-antimicrobial activity against Mycobacterium tuberculosis H37Rv at 15.5 uM preincubated for 24 hrs followed by kanamycin addition measured after 6 days by Alamar blue assay; type: functional
[12] = test system: Mycobacterium tuberculosis; experiment: Inhibition of Mycobacterium tuberculosis K204 Eis assessed as kanamycin MIC at 15.5 uM preincubated for 24 hrs followed by kanamycin addition measured after 6 days by Alamar blue assay (Rvb >= 10 ug/ml)
[13] = test system: Mycobacterium tuberculosis; experiment: Potentiation of kanamycin induced-antimicrobial activity against Mycobacterium tuberculosis H37Rv at 1.5 uM preincubated for 24 hrs followed by kanamycin addition measured after 6 days by Alamar blue assay; type: functional
[14] = test system: Mycobacterium tuberculosis; experiment: Inhibition of Mycobacterium tuberculosis K204 Eis assessed as kanamycin MIC at 1.5 uM preincubated for 24 hrs followed by kanamycin addition measured after 6 days by Alamar blue assay (Rvb >= 10 ug/ml)
[15] = test system: Mycobacterium tuberculosis; experiment: Potentiation of kanamycin induced-antimicrobial activity against Mycobacterium tuberculosis H37Rv at 64.5 uM preincubated for 24 hrs followed by kanamycin addition measured after 6 days by Alamar blue assay; type: functional
[16] = test system: Mycobacterium tuberculosis; experiment: Inhibition of Mycobacterium tuberculosis K204 Eis assessed as kanamycin MIC at 64.5 uM preincubated for 24 hrs followed by kanamycin addition measured after 6 days by Alamar blue assay (Rvb >= 10 ug/ml)
[17] = test system: Mycobacterium tuberculosis; experiment: Inhibition of Mycobacterium tuberculosis K204 Eis assessed as kanamycin MIC at 25.1 uM preincubated for 24 hrs followed by kanamycin addition measured after 6 days by Alamar blue assay (Rvb >= 10 ug/ml)
[18] = test system: Mycobacterium tuberculosis; experiment: Potentiation of kanamycin induced-antimicrobial activity against Mycobacterium tuberculosis H37Rv at 25.1 uM preincubated for 24 hrs followed by kanamycin addition measured after 6 days by Alamar blue assay; type: functional
[19] = test system: Mycobacterium tuberculosis; experiment: Potentiation of kanamycin induced-antimicrobial activity against Mycobacterium tuberculosis H37Rv at 54.2 uM preincubated for 24 hrs followed by kanamycin addition measured after 6 days by Alamar blue assay; type: functional
[20] = test system: Mycobacterium tuberculosis; experiment: Inhibition of Mycobacterium tuberculosis K204 Eis assessed as kanamycin MIC at 54.2 uM preincubated for 24 hrs followed by kanamycin addition measured after 6 days by Alamar blue assay (Rvb >= 10 ug/ml)
[21] = test system: Mycobacterium tuberculosis; experiment: Inhibition of Mycobacterium tuberculosis K204 Eis assessed as kanamycin MIC at 32.6 uM preincubated for 24 hrs followed by kanamycin addition measured after 6 days by Alamar blue assay (Rvb >= 10 ug/ml)
[22] = test system: Mycobacterium tuberculosis; experiment: Potentiation of kanamycin induced-antimicrobial activity against Mycobacterium tuberculosis H37Rv at 32.6 uM preincubated for 24 hrs followed by kanamycin addition measured after 6 days by Alamar blue assay; type: functional
[23] = test system: Mycobacterium tuberculosis; experiment: Inhibition of Mycobacterium tuberculosis K204 Eis assessed as kanamycin MIC at 29.7 uM preincubated for 24 hrs followed by kanamycin addition measured after 6 days by Alamar blue assay (Rvb >= 10 ug/ml)
[24] = test system: Mycobacterium tuberculosis; experiment: Potentiation of kanamycin induced-antimicrobial activity against Mycobacterium tuberculosis H37Rv at 29.7 uM preincubated for 24 hrs followed by kanamycin addition measured after 6 days by Alamar blue assay; type: functional

| Structure (SMILES) | IC50 [1] | MIC [2] | MIC [3] | other results |
| --- | --- | --- | --- | --- |
| CC(C)(C)C(=O)CN1C(=O)C2(OCCO2)c2ccccc21 | > 200 µM | ≤ 1.25 µg/mL | > 10 µg/mL |  |
| COC(=O)c1cc2occc2n1CC(=O)c1ccccc1 |  | ≤ 1.25 µg/mL | 5 to 10 µg/mL | inhibition [4]: Active |
| Cc1ccc(C(=O)CN2C(=O)C3(OCCO3)c3ccccc32)cc1 |  | ≤ 1.25 µg/mL | 5 to 10 µg/mL |  |
| COC(=O)c1cc2occc2n1CC(=O)c1ccc(C)cc1 |  | ≤ 1.25 µg/mL | 5 to 10 µg/mL |  |
| COC(=O)c1cc2occc2n1CC(=O)c1cccc(Br)c1 | 0.5 µM |  |  | MIC [5]: ≤ 1.25 µg/mL; MIC [6]: > 10 µg/mL |
| CCC(=O)CN1C(=O)C2(OCCO2)c2ccccc21 | > 200 µM | ≤ 1.25 µg/mL | > 10 µg/mL |  |
| O=C(CN1C(=O)C2(OCCO2)c2ccccc21)c1ccc(F)cc1 | 0.09 µM |  |  | MIC [7]: ≤ 1.25 µg/mL; MIC [8]: 5 µg/mL; inhibition [4]: Active |
| COC(=O)c1cc2occc2n1CC(=O)c1ccc(F)cc1 | 0.3 µM |  |  | MIC [9]: 10 µg/mL; MIC [10]: ≤ 1.25 µg/mL |
| COC(=O)c1cc2occc2n1CC(=O)c1ccc2ccccc2c1 |  | ≤ 1.25 µg/mL | 10 µg/mL |  |
| COC(=O)c1cc2occc2n1CC(=O)c1ccccc1F |  | ≤ 1.25 µg/mL | 10 µg/mL |  |
| COc1cccc(C(=O)CN2C(=O)C3(OCCO3)c3ccccc32)c1 |  | ≤ 1.25 µg/mL | > 10 µg/mL |  |
| COC(=O)c1cc2occc2n1CC(=O)c1cccc(F)c1 |  |  |  | MIC [11]: ≤ 1.25 µg/mL; MIC [12]: 10 µg/mL |
| O=C(CN1C(=O)C2(OCCO2)c2ccccc21)c1cccc(Cl)c1 |  |  |  | MIC [13]: ≤ 1.25 µg/mL; MIC [14]: > 10 µg/mL |
| O=C(CN1C(=O)C2(OCCO2)c2ccccc21)c1ccc2ccccc2c1 |  | ≤ 1.25 µg/mL | 10 µg/mL |  |
| COC(=O)c1cc2occc2n1CC(=O)c1ccc(Cl)cc1 |  |  |  | MIC [15]: ≤ 1.25 µg/mL; MIC [16]: > 10 µg/mL |
| COC(=O)c1cc2occc2n1CC(=O)c1ccc(Br)cc1 |  | ≤ 1.25 µg/mL | > 10 µg/mL |  |
| COC(=O)c1cc2occc2n1CC(=O)c1cccc(OC)c1 | > 200 µM | ≤ 1.25 µg/mL | > 10 µg/mL |  |
| O=C(CN1C(=O)C2(OCCO2)c2ccccc21)c1ccc(Br)cc1 | > 200 µM | ≤ 1.25 µg/mL | > 10 µg/mL | inhibition [4]: Active |
| COC(=O)c1cc2occc2n1CC(=O)c1cccc(Cl)c1 |  |  |  | MIC [17]: > 10 µg/mL; MIC [18]: ≤ 1.25 µg/mL |
| COC(=O)c1cc2occc2n1CC(=O)C(C)(C)C | > 200 µM | ≤ 1.25 µg/mL | > 10 µg/mL |  |
| CCC(=O)Cn1c(C(=O)OC)cc2occc21 | > 200 µM | ≤ 1.25 µg/mL | > 10 µg/mL |  |
| O=C(CN1C(=O)C2(OCCO2)c2ccccc21)c1cccc([N+](=O)[O-])c1 |  | ≤ 1.25 µg/mL | 5 to 10 µg/mL |  |
| O=C(CN1C(=O)C2(OCCO2)c2ccccc21)c1cccc(Br)c1 |  |  |  | MIC [19]: ≤ 1.25 µg/mL; MIC [20]: 5 to 10 µg/mL |
| O=C(CN1C(=O)C2(OCCO2)c2ccccc21)c1ccccc1 | 0.33 µM |  |  | MIC [21]: 5 µg/mL; MIC [22]: ≤ 1.25 µg/mL |
| O=C(CN1C(=O)C2(OCCO2)c2ccccc21)c1ccccc1F |  | ≤ 1.25 µg/mL | 10 µg/mL |  |
| O=C(CN1C(=O)C2(OCCO2)c2ccccc21)c1ccc(Cl)cc1 | 2.2 µM | ≤ 1.25 µg/mL | 5 to 10 µg/mL | inhibition [4]: Active |
| O=C(CN1C(=O)C2(OCCO2)c2ccccc21)c1cccc(F)c1 |  |  |  | MIC [23]: 2.5 to 5 µg/mL; MIC [24]: ≤ 1.25 µg/mL |
